Measured values: PMC11031590, “Narazaciclib, a novel multi-kinase inhibitor with potent activity against CSF1R, FLT3 and CDK6, shows strong anti-AML activity in defined preclinical models” (Scientific Reports, 2024)

Legend:
Assay in all cases: AML cell line in vitro proliferation assay
Type in all cases: cell-based
[1] = system: ML2
Method: (§1) Narazaciclib was serially diluted with culture medium to 9 final assay concentrations from 0.01 to 100 μM. The assay was performed with both a negative control (vehicle) and a positive control (Cisplatin) in triplicate. The AML cell lines at log-growth phase were cultured in 96-well plates (black transparent flat bottom 96-well plate, Corning, Cat# 3603, FBS, ExCell Bio., Cat# FND500) in the presence of narazaciclib or Cisplatin at various concentrations for 72 h or 120 h (only for AML-193 cell line), followed by CTG readout according to the manufacturer’s instruction (CellTiter-Glo Luminescent Cell Viability Assay, Promega, Cat# G7573). Viability%=Lumdrug-Lummedium control/Lumcell control-Lummedium control×100%. Lumcell control-Lummedium controlas100%,LumMediumcontrolas0%. Proliferationfold increase=D5-LumNone treated-LumMedium control/D2LumNone treated-LumMedium control
(§2) Dose–response curves were fitted by a 4-parameter log-logistic model: Inhibition%=Bottom+Top-Bottom/1+10^logEC50-x∗HillSlope where Top and Bottom are the two asymptotes of the sigmoidal curve, EC50 is the relative IC50, concentration x is in log-10 scale and HillSlope is the slope at the EC50 point on the fitted curve. The fitted area under the curve (AUC) was calculated by: Inhibition%=Bottom+Top-Bottom/1+10^logEC50-x∗HillSlope where a represents the log10-transformed minimal concentration and b represents the log10-transformed maximal concentration. An extremely strong positive correlation between the absolute IC50 and AUC is shown in Supplemental Fig. S5.

[2] = system: THP-1
Method: as §1, §2

[3] = system: CMK-115
Method: as §1, §2

[4] = system: OCI-M1
Method: as §1, §2

[5] = system: PL21
Method: as §1, §2

[6] = system: NB4
Method: as §1, §2

[7] = system: SKM-1
Method: as §1, §2

[8] = system: OCI-AML-2
Method: as §1, §2

[9] = system: EOL1
Method: as §1, §2

[10] = system: OCI-AML-5
Method: as §1, §2

[11] = system: HEL-9217
Method: as §1, §2

[12] = system: AML-193
Method: as §1, §2

[13] = system: PLB-985
Method: as §1, §2

[14] = system: KG-1
Method: as §1, §2

[15] = system: HNT34
Method: as §1, §2

[16] = system: HEL
Method: as §1, §2

[17] = system: NOMO-1
Method: as §1, §2

[18] = system: TF-1
Method: as §1, §2

[19] = system: SKNO-1
Method: as §1, §2

[20] = system: UT7
Method: as §1, §2

[21] = system: KASUMI-6
Method: as §1, §2

[22] = system: KG-1A
Method: as §1, §2

[23] = system: MOLM-16
Method: as §1, §2

[24] = system: CMK
Method: as §1, §2

[25] = system: MONOMAC-1
Method: as §1, §2

[26] = area under the dose–response curve

What does the source list for `CN1CCN(c2ccc(Nc3ncc4cc(C#N)c(=O)n(C5CCCC5)c4n3)cc2)CC1` [Narazaciclib, narazaciclib]?
IC50 ([1]; Homo sapiens, ML-2, ML2, 72 h, CTG): 3.6 µM; Classification by AUC ([1]; ML2): Intermediate (2.4 < AUC < 2.8, intermediate); AUC ([1]; ML2, area under the dose–response curve): 2.633; IC50 ([2]; Homo sapiens, THP-1, 72 h, CTG): > 100 µM; Classification by AUC ([2]; THP-1): Insensitive (AUC ≥ 2.8, insensitive); AUC ([2]; THP-1, area under the dose–response curve): 3.445; IC50 ([3]; CMK-11-5, CMK-115, 72 h, CTG): 5.07 µM; Classification by AUC ([3]; CMK-115): Insensitive (AUC ≥ 2.8, insensitive); AUC ([3]; CMK-115, area under the dose–response curve): 2.801; Classification by AUC ([4]; OCI-M1): Insensitive (AUC ≥ 2.8, insensitive); IC50 ([4]; OCI-M1, 72 h, CTG): 19.5 µM; AUC ([4]; OCI-M1, area under the dose–response curve): 3.404; Classification by AUC ([5]; PL21): Sensitive (AUC ≤ 2.4, sensitive); AUC ([5]; PL21, area under the dose–response curve): 2.37; IC50 ([5]; PL-21, PL21, 72 h, CTG): 3.4 µM; IC50 ([6]; Homo sapiens, NB-4, NB4, 72 h, CTG): 3.28 µM; Classification by AUC ([6]; NB4): Insensitive (AUC ≥ 2.8, insensitive); AUC ([6]; NB4, area under the dose–response curve): 2.865; IC50 ([7]; Homo sapiens, SKM-1, 72 h, CTG): 1.94 µM; Classification by AUC ([7]; SKM-1): Sensitive (AUC ≤ 2.4, sensitive); AUC ([7]; SKM-1, area under the dose–response curve): 2.323; IC50 ([8]; Homo sapiens, OCI-AML2, OCI-AML-2, 72 h, CTG): 1.16 µM; Classification by AUC ([8]; OCI-AML-2): Sensitive (AUC ≤ 2.4, sensitive); AUC ([8]; OCI-AML-2, area under the dose–response curve): 2.116; Classification by AUC ([9]; EOL1): Sensitive (AUC ≤ 2.4, sensitive); AUC ([9]; EOL1, area under the dose–response curve): 0.5917; IC50 ([9]; Homo sapiens, EOL1, 72 h, CTG): 0.035 µM; IC50 ([10]; Homo sapiens, OCI-AML-5, 72 h, CTG): 0.37 µM; Classification by AUC ([10]; OCI-AML-5): Sensitive (AUC ≤ 2.4, sensitive); AUC ([10]; OCI-AML-5, area under the dose–response curve): 1.636; Classification by AUC ([11]; HEL-9217): Insensitive (AUC ≥ 2.8, insensitive); AUC ([11]; HEL-9217, area under the dose–response curve): 3.209; IC50 ([11]; Homo sapiens, HEL 92.1.7, HEL-9217, 72 h, CTG): 15.7 µM; Classification by AUC ([12]; AML-193): Intermediate (2.4 < AUC < 2.8, intermediate); IC50 ([12]; AML-193, 120 h, CTG): 6.29 µM; AUC ([12]; AML-193, area under the dose–response curve): 2.514; Classification by AUC ([13]; PLB-985): Insensitive (AUC ≥ 2.8, insensitive); IC50 ([13]; PLB-985, 72 h, CTG): 14.1 µM; AUC ([13]; PLB-985, area under the dose–response curve): 2.988; IC50 ([14]; Homo sapiens, KG-1, 72 h, CTG): 1.76 µM; Classification by AUC ([14]; KG-1): Intermediate (2.4 < AUC < 2.8, intermediate); AUC ([14]; KG-1, area under the dose–response curve): 2.63; Classification by AUC ([15]; HNT34): Sensitive (AUC ≤ 2.4, sensitive); AUC ([15]; HNT34, area under the dose–response curve): 2.068; IC50 ([15]; HNT-34, HNT34, 72 h, CTG): 1.48 µM; Classification by AUC [16]: Insensitive (AUC ≥ 2.8, insensitive); IC50 ([16]; Homo sapiens, 72 h, CTG): 15.3 µM; AUC [16, 26]: 3.335; IC50 ([17]; Homo sapiens, NOMO-1, 72 h, CTG): > 100 µM; Classification by AUC ([17]; NOMO-1): Insensitive (AUC ≥ 2.8, insensitive); AUC ([17]; NOMO-1, area under the dose–response curve): 3.207; IC50 ([18]; Homo sapiens, TF-1, 72 h, CTG): 50.8 µM; Classification by AUC ([18]; TF-1): Insensitive (AUC ≥ 2.8, insensitive); AUC ([18]; TF-1, area under the dose–response curve): 3.502; Classification by AUC ([19]; SKNO-1): Sensitive (AUC ≤ 2.4, sensitive); IC50 ([19]; SKNO-1, 72 h, CTG): 0.234 µM; AUC ([19]; SKNO-1, area under the dose–response curve): 1.97; IC50 ([20]; Homo sapiens, UT7, 72 h, CTG): 62.4 µM; Classification by AUC ([20]; UT7): Insensitive (AUC ≥ 2.8, insensitive); AUC ([20]; UT7, area under the dose–response curve): 3.469; Classification by AUC ([21]; KASUMI-6): Sensitive (AUC ≤ 2.4, sensitive); IC50 ([21]; KASUMI-6, 72 h, CTG): 1.48 µM; AUC ([21]; KASUMI-6, area under the dose–response curve): 2.251; Classification by AUC [22]: Sensitive (AUC ≤ 2.4, sensitive); IC50 ([22]; Homo sapiens, 72 h, CTG): 1.06 µM; AUC [22, 26]: 2.289; IC50 ([23]; MOLM16, MOLM-16, 72 h, CTG): 4.77 µM; Classification by AUC ([23]; MOLM-16): Insensitive (AUC ≥ 2.8, insensitive); AUC ([23]; MOLM-16, area under the dose–response curve): 2.992; Classification by AUC [24]: Sensitive (AUC ≤ 2.4, sensitive); IC50 ([24]; Homo sapiens, 72 h, CTG): 1.65 µM; AUC [24, 26]: 2.347; Classification by AUC ([25]; MONOMAC-1): Sensitive (AUC ≤ 2.4, sensitive); AUC ([25]; MONOMAC-1, area under the dose–response curve): 1.906; IC50 ([25]; Mono-Mac-1, MONOMAC-1, 72 h, CTG): 0.297 µM
